Laboratory results as given in patent US9822147B2, “Methods of treating ophthalmic diseases using NPR-B agonists” (priority 2009, dated 2017).
Numbered stars: 1 amine (or outer) side, 2 acyl side, 3 side chain; on linkers, the order of the positions; unused ones are H or OH. Square brackets hold non-standard residues; d marks the D form. Peptide text beside a SMILES is read from it. * marks the point of attachment. Phe(3,4-Cl2) = N[C@@H](Cc1ccc(Cl)c(Cl)c1)C(=O)O; Pro(4R-NH2) = N[C@H]1CN[C@H](C(=O)O)C1; X2 = O=C([C@H]1CCCN([*:1])C1)[*:2]; Hyp = O=C(O)[C@@H]1C[C@@H](O)CN1; NMeL = CN[C@@H](CC(C)C)C(=O)O; X6 = C[C@@H]1CCCC[C@H]1N*; Octanoyl = CCCCCCCC(=O)*; Api = NC1(C(=O)O)CCNCC1

molecular target: T1, NPR-B (Homo sapiens, UniProt P20594); assay: NPR-B induced production of cyclic GMP in human glaucoma trabecular meshwork cells (GTM-3); assay type: cell-based; conditions: group by EC50 and Emax (CNP = 100%); Table 4; read-out: Activity (group), NPR-B activation assayed with GTM-3 cells
T1 construct: a functional assay using endogenously NPR-B expressing GTM-3 cells; endogenous in cells; host or cells: GTM-3 (human glaucoma trabecular meshwork cells)
T1 sequence (P20594 23-1047): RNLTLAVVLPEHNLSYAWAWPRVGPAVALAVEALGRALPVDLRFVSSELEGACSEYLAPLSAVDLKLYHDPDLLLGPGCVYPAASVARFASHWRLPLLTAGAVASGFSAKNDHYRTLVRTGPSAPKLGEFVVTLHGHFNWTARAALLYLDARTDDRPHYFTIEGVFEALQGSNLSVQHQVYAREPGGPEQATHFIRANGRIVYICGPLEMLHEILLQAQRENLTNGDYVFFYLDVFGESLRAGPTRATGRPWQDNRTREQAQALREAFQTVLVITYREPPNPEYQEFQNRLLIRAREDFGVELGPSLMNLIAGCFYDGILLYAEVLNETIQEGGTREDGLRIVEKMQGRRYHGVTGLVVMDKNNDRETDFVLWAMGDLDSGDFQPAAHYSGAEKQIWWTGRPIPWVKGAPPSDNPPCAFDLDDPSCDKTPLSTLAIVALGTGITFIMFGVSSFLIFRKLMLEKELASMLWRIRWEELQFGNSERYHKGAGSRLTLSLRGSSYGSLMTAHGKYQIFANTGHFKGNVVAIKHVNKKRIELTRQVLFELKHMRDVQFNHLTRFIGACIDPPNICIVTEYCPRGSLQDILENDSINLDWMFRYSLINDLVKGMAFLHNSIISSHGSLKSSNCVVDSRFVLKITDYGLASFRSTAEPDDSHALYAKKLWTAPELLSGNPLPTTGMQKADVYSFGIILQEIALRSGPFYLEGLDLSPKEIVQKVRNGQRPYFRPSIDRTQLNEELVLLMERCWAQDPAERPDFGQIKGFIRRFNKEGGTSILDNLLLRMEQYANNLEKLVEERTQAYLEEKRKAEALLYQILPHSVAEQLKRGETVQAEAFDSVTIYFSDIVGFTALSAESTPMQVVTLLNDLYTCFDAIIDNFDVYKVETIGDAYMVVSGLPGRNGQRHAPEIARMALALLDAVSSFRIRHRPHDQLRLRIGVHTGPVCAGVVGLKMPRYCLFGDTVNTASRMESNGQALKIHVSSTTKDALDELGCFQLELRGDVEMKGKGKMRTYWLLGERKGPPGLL

EC50, < 1000 nM:
CCCCCCCC(=O)N1CCC[C@H](C(=O)N[C@@H](Cc2ccc(Cl)c(Cl)c2)C(=O)N[C@H](CC(C)C)C(=O)N[C@@H](CC(C)C)C(=O)N2C[C@H](O)C[C@H]2C(=O)N(C)[C@@H](CC(C)C)C(=O)N[C@@H](CC(=O)O)C(=O)N[C@@H](CCCNC(=N)N)C(=O)N[C@H](C(N)=O)[C@@H](C)CC)C1 [JAL-1496, Occ-Sni-Eaa-leu-Leu-Hyp-Nml-Asp-Arg-Ile-NH2] (Octanoyl-[X2][Phe(3,4-Cl2)][dL]L[Hyp][NMeL]DRI-NH2)
CCCCCCCC(=O)N1CCC[C@H](C(=O)N[C@@H](Cc2ccccc2)C(=O)N[C@H](CC(C)C)C(=O)N[C@@H](CC(C)C)C(=O)N2C[C@H](O)C[C@H]2C(=O)N(C)[C@@H](CC(C)C)C(=O)N[C@@H](CC(=O)O)C(=O)N2CCC[C@H]2C(=O)N[C@@H]2CCCC[C@H]2C)C1 [JAL-1510, Occ-Sni-Phe-leu-Leu-Hyp-Nml-Asp-Pro-1860] (Octanoyl-[X2]F[dL]L[Hyp][NMeL]DP-X6)
CCCCCCCC(=O)N[C@H](C)C(=O)N[C@@H](Cc1ccccc1)C(=O)N[C@H](CC(C)C)C(=O)N[C@@H](CC(C)C)C(=O)N1C[C@H](O)C[C@H]1C(=O)N(C)[C@@H](CC(C)C)C(=O)N[C@H](C(=O)N[C@@H](CCCNC(=N)N)C(=O)N[C@H](C(N)=O)[C@@H](C)CC)C1CCCC1 [JAL-1556, Occ-ala-Phe-leu-Leu-Hyp-Nml-(BB725)-Arg-Ile-NH2] (HELM PEPTIDE1{[CCCCCCCC(=O)[*:2]].[dA].F.[dL].L.[Hyp].[meL].[O=C([C@@H](N[*:1])C1CCCC1)[*:2]].R.I.[am]}$$$$V2.0)
CCCCCCCC(=O)N1CCC[C@H](C(=O)N[C@@H](Cc2ccccc2)C(=O)N[C@H](CC(C)C)C(=O)N[C@@H](CC(C)C)C(=O)N2C[C@H](N)C[C@H]2C(=O)N(C)[C@@H](CC(C)C)C(=O)N[C@@H](CC(=O)O)C(=O)N2CCC[C@H]2C(=O)N[C@H](C(N)=O)[C@@H](C)CC)C1 [JAL-1559, Occ-Sni-Phe-leu-Leu-Tap-Nml-Asp-Pro-Ile-NH2] (Octanoyl-[X2]F[dL]L[Pro(4R-NH2)][NMeL]DPI-NH2)
CCCCCCCC(=O)N1CCC[C@H](C(=O)N[C@@H](Cc2ccccc2)C(=O)NC2(C(=O)N[C@@H](CC(C)C)C(=O)N3C[C@H](N)C[C@H]3C(=O)N(C)[C@@H](CC(C)C)C(=O)N[C@@H](CC(=O)O)C(=O)N3CCC[C@H]3C(=O)N[C@H](C(N)=O)[C@@H](C)CC)CCNCC2)C1 [JAL-1561, Occ-Sni-Phe-Apc-Leu-Tap-Nml-Asp-Pro-Ile-NH2] (Octanoyl-[X2]F[Api]L[Pro(4R-NH2)][NMeL]DPI-NH2)
CCCCCCCC(=O)N1CCC[C@H](C(=O)N[C@@H](Cc2ccccc2)C(=O)N[C@H](CC(C)C)C(=O)N[C@@H](CC(C)C)C(=O)N2C[C@H](O)C[C@H]2C(=O)N(C)[C@@H](CC(C)C)C(=O)N[C@@H](CC(=O)O)C(=O)N[C@@H](CCCNC(=N)N)C(=O)N(C)[C@H](C(N)=O)[C@@H](C)CC)C1 [JAL-1569, Occ-Sni-Phe-leu-Leu-Hyp-Nml-Asp-Arg-Nmi-NH2] (HELM PEPTIDE1{[CCCCCCCC(=O)[*:2]].[O=C([C@H]1CCCN([*:1])C1)[*:2]].F.[dL].L.[Hyp].[meL].D.R.[meI].[am]}$$$$V2.0)
CCCCCCCC(=O)N1CCC[C@H](C(=O)N(C)[C@@H](Cc2ccccc2)C(=O)N[C@H](CC(C)C)C(=O)N[C@@H](CC(C)C)C(=O)N2C[C@H](O)C[C@H]2C(=O)N(C)[C@@H](CC(C)C)C(=O)N[C@@H](CC(=O)O)C(=O)N[C@@H](CCCNC(=N)N)C(=O)N[C@H](C(N)=O)[C@@H](C)CC)C1 [JAL-1573, Occ-Sni-Nmf-leu-Leu-Hyp-Nml-Asp-Arg-Ile-NH2] (HELM PEPTIDE1{[CCCCCCCC(=O)[*:2]].[O=C([C@H]1CCCN([*:1])C1)[*:2]].[meF].[dL].L.[Hyp].[meL].D.R.I.[am]}$$$$V2.0)
